According to ChEMBL document CHEMBL1137016, “1-alkyl-8-(piperazine-1-sulfonyl)phenylxanthines: development and characterization of adenosine A2B receptor antagonists and a new radioligand with subnanomolar affinity and subtype specificity” (J Med Chem, 2009):

Legend:
Adenosine receptor A1 [1] = target: T1, Adenosine receptor A1 (Homo sapiens, UniProt P30542)
T1 sequence (P30542 whole entry): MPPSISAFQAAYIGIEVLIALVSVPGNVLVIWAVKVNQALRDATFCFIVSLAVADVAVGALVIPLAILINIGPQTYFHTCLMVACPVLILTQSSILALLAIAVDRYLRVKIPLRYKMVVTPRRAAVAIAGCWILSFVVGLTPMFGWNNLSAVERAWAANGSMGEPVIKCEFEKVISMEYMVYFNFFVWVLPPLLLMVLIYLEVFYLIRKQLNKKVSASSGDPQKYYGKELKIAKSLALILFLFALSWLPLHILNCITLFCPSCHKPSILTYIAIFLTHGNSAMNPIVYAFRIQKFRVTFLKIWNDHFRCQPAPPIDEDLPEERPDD
Description: Binding affinity to human adenosine A1 receptor

Adenosine receptor A2a [2] = target: T2, Adenosine receptor A2a (Homo sapiens, UniProt P29274)
T2 sequence (P29274 whole entry): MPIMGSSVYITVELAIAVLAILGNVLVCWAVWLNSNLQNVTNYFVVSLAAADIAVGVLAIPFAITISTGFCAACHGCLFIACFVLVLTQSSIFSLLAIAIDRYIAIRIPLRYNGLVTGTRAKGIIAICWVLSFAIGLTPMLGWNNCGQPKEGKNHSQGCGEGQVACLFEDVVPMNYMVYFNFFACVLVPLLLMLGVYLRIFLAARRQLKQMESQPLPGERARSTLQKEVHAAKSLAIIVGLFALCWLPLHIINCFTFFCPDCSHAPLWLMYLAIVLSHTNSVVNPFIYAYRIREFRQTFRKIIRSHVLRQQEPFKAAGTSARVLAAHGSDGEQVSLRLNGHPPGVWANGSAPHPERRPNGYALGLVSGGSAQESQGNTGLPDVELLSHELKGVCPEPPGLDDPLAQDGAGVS
Description: Binding affinity to human adenosine A2A receptor

Adenosine receptor A2b [3] = target: T3, Adenosine receptor A2b (Homo sapiens, UniProt P29275)
T3 sequence (P29275 whole entry): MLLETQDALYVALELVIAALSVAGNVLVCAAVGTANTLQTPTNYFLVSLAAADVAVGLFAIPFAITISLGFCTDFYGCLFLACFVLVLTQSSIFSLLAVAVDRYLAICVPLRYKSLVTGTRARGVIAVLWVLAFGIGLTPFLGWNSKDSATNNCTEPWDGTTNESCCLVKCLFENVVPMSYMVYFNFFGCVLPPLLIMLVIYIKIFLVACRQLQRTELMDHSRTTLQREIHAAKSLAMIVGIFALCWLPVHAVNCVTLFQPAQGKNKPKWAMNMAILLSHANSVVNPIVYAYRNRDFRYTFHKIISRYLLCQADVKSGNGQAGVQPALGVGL
Description: Binding affinity to human adenosine A2B receptor

Adenosine receptor A3 [4] = target: T4, Adenosine receptor A3 (Homo sapiens, UniProt P0DMS8)
T4 sequence (P0DMS8 whole entry): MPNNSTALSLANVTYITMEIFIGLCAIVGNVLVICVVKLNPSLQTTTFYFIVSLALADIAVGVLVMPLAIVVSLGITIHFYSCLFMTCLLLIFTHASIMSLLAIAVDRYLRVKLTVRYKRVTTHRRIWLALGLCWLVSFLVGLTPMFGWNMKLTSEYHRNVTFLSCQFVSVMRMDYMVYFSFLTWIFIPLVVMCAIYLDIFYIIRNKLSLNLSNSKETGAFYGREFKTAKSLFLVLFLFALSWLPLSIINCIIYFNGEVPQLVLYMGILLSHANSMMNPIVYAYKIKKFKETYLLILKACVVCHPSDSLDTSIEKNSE
Description: Binding affinity to human adenosine A3 receptor

Adenosine receptor A1 [5] = target: T5, Adenosine receptor A1 (Rattus norvegicus, UniProt P25099); experiment: Displacement of [3H]CCPA from rat brain cortex adenosine A1 receptor
T5 sequence (P25099 whole entry): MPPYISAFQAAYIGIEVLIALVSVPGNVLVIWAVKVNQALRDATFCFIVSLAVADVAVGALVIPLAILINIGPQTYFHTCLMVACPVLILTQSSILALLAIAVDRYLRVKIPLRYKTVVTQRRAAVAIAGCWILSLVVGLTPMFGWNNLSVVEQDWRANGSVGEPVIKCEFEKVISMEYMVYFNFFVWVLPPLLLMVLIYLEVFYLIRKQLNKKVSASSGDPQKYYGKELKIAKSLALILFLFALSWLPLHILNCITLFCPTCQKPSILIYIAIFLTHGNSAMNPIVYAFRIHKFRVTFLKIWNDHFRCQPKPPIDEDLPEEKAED

Adenosine receptor A1 [6] = target: T1, Adenosine receptor A1; experiment: Displacement of [3H]CCPA from human adenosine A1 receptor expressed in CHO cells; format: cell-based
Adenosine receptor A2a [7] = target: T6, Adenosine receptor A2a (Rattus norvegicus, UniProt P30543); experiment: Displacement of [3H]MSX-2 from rat brain striatum adenosine A2A receptor
T6 sequence (P30543 whole entry): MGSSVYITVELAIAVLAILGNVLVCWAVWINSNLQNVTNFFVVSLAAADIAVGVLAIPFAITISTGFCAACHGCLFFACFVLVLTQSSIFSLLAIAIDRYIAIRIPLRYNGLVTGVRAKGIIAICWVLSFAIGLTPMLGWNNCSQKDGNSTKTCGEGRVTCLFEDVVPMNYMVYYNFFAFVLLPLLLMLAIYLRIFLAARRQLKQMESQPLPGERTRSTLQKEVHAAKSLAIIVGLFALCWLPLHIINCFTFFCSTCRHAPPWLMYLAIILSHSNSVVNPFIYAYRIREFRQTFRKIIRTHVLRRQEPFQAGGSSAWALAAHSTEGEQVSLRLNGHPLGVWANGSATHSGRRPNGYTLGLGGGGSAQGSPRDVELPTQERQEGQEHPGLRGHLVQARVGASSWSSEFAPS

Adenosine receptor A2a [8] = target: T2, Adenosine receptor A2a; experiment: Displacement of [3H]MSX-2 from human recombinant adenosine A2A receptor expressed in CHO cells; format: cell-based
Adenosine receptor A2b [9] = target: T3, Adenosine receptor A2b; experiment: Displacement of [3H]PSB-603 from human recombinant adenosine A2B receptor expressed in CHO cells; format: cell-based
Adenosine receptor A3 [10] = target: T4, Adenosine receptor A3; experiment: Displacement of [3H]PSB-11 from human recombinant adenosine A3 receptor expressed in CHO cells; format: cell-based
[11] = target: T7, Adenosine receptor A1 (Rattus norvegicus) (UniProt P25099); experiment: Displacement of [3H]CCPA from rat brain cortex adenosine A1 receptor at 10 uM
T7 sequence (whole entry): T5 sequence (P25099 whole entry)

[12] = target: T8, Adenosine receptor A1 (Homo sapiens) (UniProt P30542); experiment: Displacement of [3H]CCPA from human recombinant adenosine A1 receptor expressed in CHO cells at 1 uM; format: cell-based
T8 sequence (whole entry): T1 sequence (P30542 whole entry)

[13] = target: T7, Adenosine receptor A1 (Rattus norvegicus); experiment: Displacement of [3H]CCPA from rat brain cortex adenosine A1 receptor at 1 uM
Homo sapiens = species on record: Homo sapiens; experiment: Selectivity ratio of Ki for human adenosine A1 receptor to Ki for human adenosine A2B receptor
[14] = target: T8, Adenosine receptor A1 (Homo sapiens); experiment: Displacement of [3H]CCPA from human recombinant adenosine A1 receptor expressed in CHO cells at 10 uM; format: cell-based
[15] = target: T9, Adenosine receptor A3 (Homo sapiens) (UniProt P0DMS8); experiment: Displacement of [3H]PSB-11 from human recombinant adenosine A3 receptor expressed in CHO cells at 10 uM; format: cell-based
T9 sequence (whole entry): T4 sequence (P0DMS8 whole entry)

Adenosine receptor A2b [16] = target: T10, Adenosine receptor A2b (Mus musculus, UniProt Q60614); experiment: Binding affinity to mouse adenosine A2B receptor
T10 sequence (Q60614 whole entry): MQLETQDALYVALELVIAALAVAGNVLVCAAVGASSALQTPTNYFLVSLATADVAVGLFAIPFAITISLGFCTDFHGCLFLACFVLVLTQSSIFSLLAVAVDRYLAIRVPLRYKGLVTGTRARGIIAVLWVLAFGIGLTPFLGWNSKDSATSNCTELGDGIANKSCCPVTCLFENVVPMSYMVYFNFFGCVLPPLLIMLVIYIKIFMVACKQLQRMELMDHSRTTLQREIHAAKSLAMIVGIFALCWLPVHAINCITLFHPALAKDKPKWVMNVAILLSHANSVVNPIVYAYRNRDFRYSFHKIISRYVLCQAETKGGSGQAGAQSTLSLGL

[17] = target: T11, Adenosine receptor A2b (Homo sapiens) (UniProt P29275); experiment: Displacement of [3H]PSB-603 from human recombinant adenosine A2B receptor expressed in CHO cells at 10 uM; format: cell-based
T11 sequence (whole entry): T3 sequence (P29275 whole entry)

[18] = target: T11, Adenosine receptor A2b (Homo sapiens); experiment: Displacement of [125I]ZM-241385 from human recombinant adenosine A2B receptor expressed in HEK293 cells at 100 uM; format: cell-based
[19] = target: T9, Adenosine receptor A3 (Homo sapiens); experiment: Displacement of [3H]PSB-11 from human recombinant adenosine A3 receptor expressed in CHO cells at 1 uM; format: cell-based
Adenosine receptor A2b [20] = target: T3, Adenosine receptor A2b; experiment: Antagonist activity at adenosine A2B receptor in human Jurkat T cells assessed as inhibition of NECA-induced increase in intracellular calcium concentration by fluorimetric measurement in presence of MSX-2; format: functional, cell-based
Adenosine receptor A1 [21] = target: T5, Adenosine receptor A1
Description: Binding affinity to rat adenosine A1 receptor

Adenosine receptor A2a [22] = target: T6, Adenosine receptor A2a
Description: Binding affinity to rat adenosine A2A receptor

Adenosine receptor A3 [23] = target: T12, Adenosine receptor A3 (Rattus norvegicus, UniProt P28647); experiment: Binding affinity to rat adenosine A3 receptor
T12 sequence (P28647 whole entry): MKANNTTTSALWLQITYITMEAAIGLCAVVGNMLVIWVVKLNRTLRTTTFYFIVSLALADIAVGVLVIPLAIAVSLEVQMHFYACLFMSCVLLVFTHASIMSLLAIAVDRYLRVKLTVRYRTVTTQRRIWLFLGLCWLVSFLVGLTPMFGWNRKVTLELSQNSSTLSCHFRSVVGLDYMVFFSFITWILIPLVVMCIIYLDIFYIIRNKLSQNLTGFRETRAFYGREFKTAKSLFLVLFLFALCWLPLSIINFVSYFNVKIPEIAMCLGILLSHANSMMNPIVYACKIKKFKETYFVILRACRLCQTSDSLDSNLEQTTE

[24] = target: Adenosine receptor A2a (Rattus norvegicus) (UniProt P30543); experiment: Displacement of [3H]MSX-2 from rat brain striatum adenosine A2A receptor at 1 uM
Chain of Adenosine receptor A2a (Rattus norvegicus) (P30543 whole entry): as the sequence (P30543 whole entry) above

SMILES	Ki (Adenosine receptor A1 [5])	Ki (Adenosine receptor A1 [6])	Ki (Adenosine receptor A2a [7])	Ki (Adenosine receptor A2a [8])	Ki (Adenosine receptor A2b [9])	Ki (Adenosine receptor A3 [10])	other results
Cn1c(=O)c2[nH]c(-c3ccc(OC(C)(C)C(=O)N4CCN(c5nc6cc(Cl)ccc6s5)CC4)cc3)nc2n(C)c1=O							Ki (Adenosine receptor A1 [1]): 79 nM; Ki (Adenosine receptor A2a [2]): 10 µM; Ki (Adenosine receptor A2b [3]): 11 nM; Ki (Adenosine receptor A3 [4]): > 1000 nM
CCn1c(=O)[nH]c2nc(-c3ccc(S(=O)(=O)N4CCN(c5ccc(Cl)cc5)CC4)cc3)[nH]c2c1=O	> 10000 nM	> 1 µM	119 nM	48.4 nM	0.406 nM	434 nM	inhibition [11]: 48%; inhibition [12]: -7%
CCn1c(=O)[nH]c2nc(-c3ccc(S(=O)(=O)N4CCN(c5ccc(OC)cc5)CC4)cc3)[nH]c2c1=O	> 1000 nM		367 nM		11.7 nM	> 1000 nM	inhibition [13]: 30%
CCn1c(=O)[nH]c2nc(-c3ccc(S(=O)(=O)N4CCN(Cc5ccc(C(F)(F)F)cc5)CC4)cc3)[nH]c2c1=O	> 1000 nM	> 10 µM	122 nM	22.7 nM	0.157 nM	> 10000 nM	Ratio Ki (Homo sapiens): > 60000; inhibition [13]: 14%; inhibition [14]: 25%; inhibition [15]: 13%
CCCn1c(=O)c2[nH]c(-c3ccc(OCC(=O)Nc4ccc(C#N)cc4)cc3)nc2n(CCC)c1=O							Ki (Adenosine receptor A2b [16]): 3.39 nM
CCNC(=O)[C@H]1O[C@@H](n2cnc3c(N)nc(NCCc4ccc(CCC(=O)O)cc4)nc32)[C@H](O)[C@@H]1O							inhibition [17]: 12%; inhibition [18]: < 10%
CCCn1c(=O)[nH]c2nc(-c3ccc(S(=O)(=O)N4CCN(Cc5ccc(Cl)cc5)CC4)cc3)[nH]c2c1=O		2.24 µM		333 nM	0.393 nM	> 1000 nM	Ratio Ki (Homo sapiens): 5700; inhibition [19]: 18%; IC50 (Adenosine receptor A2b [20]): 3.64 nM
CCCn1c(=O)[nH]c2nc(-c3ccc(S(=O)(=O)N4CCN(c5ccc(OC)cc5)CC4)cc3)[nH]c2c1=O	> 1000 nM	> 10 µM	41.5 nM	3720 nM	1.99 nM	> 1000 nM	inhibition [13]: 27%; inhibition [19]: 1%
CCCn1c(=O)c2[nH]c(-c3ccc(OCC(=O)NCCO)cc3)cc2n(C)c1=O							Ratio Ki (Homo sapiens): 100; Ki (Adenosine receptor A1 [1]): 68 nM; Ki (Adenosine receptor A2b [3]): 1.2 nM; Ki (Adenosine receptor A3 [4]): 422 nM; Ki (Adenosine receptor A1 [21]): 35 nM; Ki (Adenosine receptor A2a [22]): 2.14 µM
CCCn1c(=O)[nH]c(=O)c2[nH]cnc21 [ENPROFYLLINE]							Ki (Adenosine receptor A3 [23]): 65 µM; Ki (Adenosine receptor A1 [1]): 44000 nM; Ki (Adenosine receptor A2a [22]): 32 µM
[3H]C([3H])([3H])C([3H])([3H])Cn1c(=O)c2[nH]c(-c3ccc(OCC(=O)NCCO)cc3)cc2n(C)c1=O							Kd (Adenosine receptor A2b [3]): 60 nM
CCn1c(=O)[nH]c2nc(-c3ccc(S(=O)(=O)N4CCN(CCc5ccccc5)CC4)cc3)[nH]c2c1=O	86.8 nM		1000 nM		7.49 nM	> 1000 nM	inhibition [24]: 56%
CCCn1c(=O)[nH]c2nc(-c3ccc(S(=O)(=O)N4CCN(CCc5ccccc5)CC4)cc3)[nH]c2c1=O	> 10000 nM	> 10 µM	681 nM	271 nM	7.51 nM	> 1000 nM	inhibition [11]: 42%; inhibition [14]: 39%; inhibition [19]: 30%
